Data reported in patent US10675331B2, “Method for achieving desired glial growth factor 2 plasma levels” (priority 2008, dated 2020).
“Also recorded” adds a separate entry of the source.

Key:
melanoma = conditions: cited from earlier work
[1] = test system: Schwann cell-DRG neuron co-cultures; test: Myelination in Schwann cell-DRG neuron co-cultures, MBP immunostaining; assay type: cell-based, rat
Experimental: Schwalm cells were prepared from sciatic nerves of newborn rats (1-2 day old) as described previously (Brookes et al., Brain Res. 1979; 165:105-118). For routine culture, Schwann cells were grown in. Dulbecco's modified Eagle's medium (DMEM) with 10% fetal bovine serum (FBS) supplemented with EGF-domain neuregulin-1 (R&D Systems) (10 ng/ml) and Forskolin (2 μM). Cells between passage 2-4 were used in all experiments described in the text.
Dissociated DRG were prepared from embryonic day 14.5 rat embryos as described previously (Eldridge et al., J Cell Biol. 1987; 105(2):1023-34) and plated onto collagen (type-1 rat tail collagen,)-coated 12 mm glass coverslips at a density of 1.25 DRG/coverslip. Five to six hours later, the cultures were flooded with neurobasal medium (Cellgro,) supplemented with B27 (GIBCO), 20% glucose, NGF (50 ng/ml) and 5-fluorodeoxyuridine (FUdR, 10 μM) and maintained in the medium for additional 2-3 days in order to remove proliferating non-neuronal cells. Cultures were then switched to fresh medium without FUdR and maintained until the DRG axons reached the periphery of the coverslips. After the axonal networks were established, Schwann cells were plated onto the neurons at a density of 100,000 cells/coverslip. […] Ten to eleven days later, myelination was assessed by immunostaining for MBP. […]

Akt = Akt (PI3-kinase pathway) activation in Schwann cell-DRG co-cultures, Western blot; assay type: cell-based, rat; conditions: U0126 with GGF2
Experimental: (§1) Monoclonal antibody to phosphorylated Akt and polyclonal antibody to phosphorylated MAPK were purchased from Cell Signaling and were used at dilutions of 1:1000 and 1:500, respectively. Polyclonal antibodies to Akt and MAPK (Promega) were used at dilutions of 1:1000 and 1:5000, respectively.
(§2) To prepare cell lysates, 90-95% confluent rat Schwann cells on 60 mm plates or co-cultures were washed twice in phosphate-buffered saline (PBS) and then lysed in 300 μl ice-cold lysis buffer (50 mM Tris HCl pH 7.4, 1% NP-40, 0.25% Sodium Deoxycholate, 150 mM NaCl, 1 mM EGTA, 10 μg/ml Leupeptin, 2 μg/ml Aprotinin, 1 mM PMSF and 0.5 mM sodium orthovanadate). Lysates were cleared by centrifugation for 15 min at 14,000 rpm in the cold and the protein concentration of the supernatants was determined according to manufacturer specifications (Bio-Rad: Hercules, Calif.). […]
(§3) To assess the possibility that the inhibitory effect of GGF2 on myelination could be due to its ability to induce a robust MAPK activation in Schwann cells, the present inventors used a well-established in vitro myelinating culture system in which Schwann cells are co-cultured with dorsal root ganglion (DRG) neurons and induced to myelinate the associated axons by addition of ascorbic acid to the culture media. […] Twenty minutes later, cell lysates were prepared and MAPK activation was determined by Western blot analysis. […]

P0 = conditions: U0126 treated cultures
c-Jun = c-Jun expression in co-culture lysates, Western blot; assay type: cell-based, rat; conditions: GGF+U0126, 11 days
Text: Control cultures were maintained without any treatment (NT). Scale bar: 100 μm. […] Error bars indicate±SE (p<0.001). […] Actin level served as a loading control.

MAPK = MAPK (Erk) activation in Schwann cell-DRG co-cultures, Western blot; assay type: cell-based, rat
Experimental: as §1
To prepare cell lysates, 90-95% confluent rat Schwann cells on 60 mm plates or co-cultures were washed twice in phosphate-buffered saline (PBS) and then lysed in 300 μl ice-cold lysis buffer (50 mM Tris HCl pH 7.4, 1% NP-40, 0.25% Sodium Deoxycholate, 150 mM NaCl, 1 mM EGTA, 10 μg/ml Leupeptin, 2 μg/ml Aprotinin, 1 mM PMSF and 0.5 mM sodium orthovanadate). Lysates were cleared by centrifugation for 15 min at 14,000 rpm in the cold and the protein concentration of the supernatants was determined according to manufacturer specifications (Bio-Rad: Hercules, Calif.). For Western blot analysis, 50-70 μg of Schwann cell lysates were size-fractionated on 10% SDS-polyacrylamide gels and transferred onto PVDF membranes. After blocking in 5% milk, the membranes were incubated with appropriate primary antibodies prepared in blocking solution. After incubating with horseradish peroxidase conjugated secondary antibodies, the protein bands were visualized by enhanced chemiluminescence. For immunoprecipitation, 500 μg of Schwann cell lysates were incubated with 0.6 μg of primary antibody for 3 hours at 4° C., then incubated with 50 μl Sepharose A beads for 1 hour. […]
as §3

Krox20 = conditions: U0126 treatment, 11 days
Experimental: Schwann cell-DRG co-cultures were pre-treated with U0126 for 30 minutes then GGF (0.6 nM) was added in the continuous presence of U0126. After 45 minutes the cell lysates were prepared and level of p-Erk and p-Akt were determined. […] Control cultures were maintained without any treatment (NT). […] Co-cultures were treated with increasing concentration of U0126 (0.5, 1 and 3 nM) under myelinating condition and 11 days later, myelination was analyzed as above. […] Co-cultures were maintained under myelinating condition in the presence of GGF or GGF+U0126 (0.5, 1 and 3 nM) for 11 days and the cell lysates were analyzed for MBP, c-Jun and Krox 20 expression. Actin level served as a loading control.
as §2

MEK-1 and MEK-2 = conditions: cited from earlier work
[2] = in vivo; cited from earlier work
advanced kidney cancer = conditions: cited from earlier work
[3] = test system: advanced colorectal, NSCLC, breast, and pancreatic cancer; conditions: 67 patients; cited from earlier work
[4] = Phase I studies; cited from earlier work
MAP kinase-kinase = conditions: many assays; read-out: IC50 values for PD 98059-induced effects; cited from earlier work
metastatic breast cancer = conditions: less in the intermittent dosing group than the continuous; cited from earlier work
[5] = patients who received sorafenib

For `O=C(NOC[C@H](O)CO)c1ccc(F)c(F)c1Nc1ccc(I)cc1F` [PD 0325901], the “response in melanoma patients” value (melanoma; human, in vivo) is given as “some partial response” and the “dose at which ocular and neurological toxicity presented” value (melanoma; oral) is given as no less than 10 mg twice-a-day.

With `N#CC(=C(/N)Sc1ccccc1N)/C(C#N)=C(\N)Sc1ccccc1N` [U0126] the level of myelination ([1]; U0126 in the absence of GGF2, FIG. 3E) was “increase in the level of myelination”, the “myelination in GGF2-treated co-cultures” value ([1]; co-treated with GGF2 and U0126, ten to eleven days) was “dose-dependent increase in myelination; also recorded: the inhibitory effect of GGF2 was reversed” and the “effect on GGF2-induced PI3-kinase / Akt activation” value (Akt) was “no effect”. The P0 expression (P0) was “increase in P0 expression”, the “GGF-induced c-Jun expression” value (c-Jun) was “down-regulating” and the “level of GGF2-induced MAPK activation” value (MAPK; U0126 1 μM, 30 minutes pretreatment, GGF2 0.6 nM) was “reduced to the basal level”. The “MAPK activation in the co-culture” value (MAPK; U0126 10 μM, 30 minutes pretreatment, GGF2 0.6 nM) was “completely abolished”, the “GGF2-induced Erk activation” value (MAPK; increasing concentrations of U0126, FIG. 3B) was “inhibited GGF2-induced Erk activation in a dosage-dependent manner” and the Krox20 expression (Krox20) was “increase in Krox20 expression”. The “higher potency than PD 98059” value (MEK-1 and MEK-2) was 100 fold.

For `N#C/C(=C(/N)Sc1ccc(N)cc1)c1ccccc1C(F)(F)F` [SL 327], the brain penetration [2] is listed as “brain penetrant”.

In the case of `CNC(=O)c1cc(Oc2ccc(NC(=O)Nc3ccc(Cl)c(C(F)(F)F)c3)cc2)ccn1` [sorafenib, Sorafenib], the “most common side effects” value (advanced kidney cancer; 768 patients) is given as “hypertension, fatigue, diarrhea, and rash”, the tolerability (advanced kidney cancer; 768 patients) is given as “very well tolerated” and the “progression-free survival (PFS), median” value (advanced kidney cancer; 769 analyzed patients) is given as 24 weeks. For the same compound, the 12-week progression-free rate (advanced kidney cancer; in vivo) was 79%, the disease control (advanced kidney cancer; [5]) was 80% and the partial response (advanced kidney cancer; [5]) was 2%. The stable disease (advanced kidney cancer; [5]) was 78%.

For `O=C(NOCC1CC1)c1ccc(F)c(F)c1Nc1ccc(I)cc1Cl` [CI-1040], the responses [3] is listed as “no responses”, the tolerability [3] is listed as “well tolerated” and the side effects [4] is listed as “mild gastrointestinal and skin side effects”.

For `COc1cccc(-c2cc(=O)c3ccccc3o2)c1N` [PD 98059], the IC50 (MAP kinase-kinase) is listed as 1 to 20 µM.

In the case of `Cn1cncc1[C@@](N)(c1ccc(Cl)cc1)c1ccc2c(c1)c(-c1cccc(Cl)c1)cc(=O)n2C` [Zarnestra, tipifarnib], the “major side effects observed” value (metastatic breast cancer) is given as “bone marrow suppression and neuropathy”.
